According to US4123612A, “7-(5-Am ino-5-carboxyvaleramido)-3-(carbamoyoloxymethyl)-3-cephem-4-carboxylic acid” (Eli Lilly and Company, priority 1974, dated 1978):
Where a name gives a salt, the structure may show the parent alone.

How the values were obtained:
Xanthomonas vesicatoria = assay: field trial on tomato plants, bacterial spot control (Example 9); type: in vivo
Description: (§1) A mixture of the monoammonium salt of A16886I and the monoammonium salt of A16886II was tested under field conditions for the control of Xanthomonas vesicatoria (bacterial spot) on mature bearing tomato plants. The mixture of the two salts was dispersed in water at a concentration of 100, 200, or 400 parts per million and applied to the plants at the rate of 75 gallons per acre. Application was made with a CO2 sprayer at 50 psi. Plants were sprayed twice, on successive days; after the second spray had dried, all plants were wounded by sand blasting and then within one minute the plants were inoculated with a bacterial inoculum of Xanthomonas vesicatoria. Three days later, a third spray application of the aqueous formulation of A16886 was made. Readings were made one week and two weeks after the last spray treatment. Controls consisted of groups of plants (1) sand blasted and inoculated; (2) sand blasted only; (3) untreated; and (4) treated with streptomycin (on the same three-day spraying schedule, at a concentration of 100, 200, or 400 parts per million of aqueous solution, using a rate of 75 gallons per acre), sand blasted, and inoculated. The results were as set forth in the following table, in which crop injury is reported on a scale of 0-10, with 0 = no injury and 10 = dead plants; and control of bacterial spot is reported on a percentage basis.

tomato plants = assay: field trial on tomato plants, crop injury (Example 9); type: in vivo; conditions: 0 = no injury, 10 = dead plants
Description: as §1

physchem = conditions: 66% dimethylformamide-water

[H]/N=C(/N)N[C@H]1[C@H](O)[C@@H](O)[C@H](O[C@@H]2O[C@@H](C)[C@](O)(C=O)[C@H]2O[C@@H]2O[C@@H](CO)[C@H](O)[C@@H](O)[C@@H]2NC)[C@@H](N/C(N)=N\[H])[C@@H]1O [Streptomycin]
Percent Bacterial Spot Control (Xanthomonas vesicatoria; 100 parts/million, first reading (one week)): 83% | Percent Bacterial Spot Control (Xanthomonas vesicatoria; 100 parts/million, second reading (two weeks)): 57% | Percent Bacterial Spot Control (Xanthomonas vesicatoria; 200 parts/million, first reading (one week)): 81% | Percent Bacterial Spot Control (Xanthomonas vesicatoria; 200 parts/million, second reading (two weeks)): 37% | Percent Bacterial Spot Control (Xanthomonas vesicatoria; 400 parts/million, first reading (one week)): 83% | Percent Bacterial Spot Control (Xanthomonas vesicatoria; 400 parts/million, second reading (two weeks)): 59% | Crop Injury Ratings (tomato plants; 100 parts/million, first reading): 0 | Crop Injury Ratings (tomato plants; 100 parts/million, second reading): 0 | Crop Injury Ratings (tomato plants; 200 parts/million, first reading): 0 | Crop Injury Ratings (tomato plants; 200 parts/million, second reading): 0 | Crop Injury Ratings (tomato plants; 400 parts/million, first reading): 0 | Crop Injury Ratings (tomato plants; 400 parts/million, second reading): 0

COC1(NC(=O)CCCC(N)C(=O)O)C(=O)N2C(C(=O)O)=C(COC(N)=O)CSC21 (stereo not drawn) [A16886I hydrochloride]
pKa (physchem; pH 5, pK'a1): 3.6 | pKa (physchem; pH 5, pK'a2): 5.2 | pKa (physchem; pH 5, pK'a3): 10.8
